# Reference: ChEMBL document CHEMBL6078624, “Structure-based discovery of a 4,5-Dihydropyrazole-cored PET ligand for imaging of receptor-interacting serine/threonine-protein kinase 1 (RIPK1) in the brain” (Eur J Med Chem, 2024)
# Test: Drug uptake in macaque brain measured at 5 mins by micro-PET imaging analysis
# Format: ADME, tissue-based
# Conditions: macaca, in vivo
smiles,measurement,value
CC(C)(C)C(=O)N1N=CC[C@H]1c1cccc([11CH3])c1,SUVmax,~ 3.7
